These results are taken from ChEMBL document CHEMBL4414666, “Structure-Activity Relationships of Pentacyclic Triterpenoids as Inhibitors of Cyclooxygenase and Lipoxygenase Enzymes” (J Nat Prod, 2019).

Test [1] deals with T1, Polyunsaturated fatty acid 5-lipoxygenase (Homo sapiens, UniProt P09917).
T1 sequence (P09917 whole entry): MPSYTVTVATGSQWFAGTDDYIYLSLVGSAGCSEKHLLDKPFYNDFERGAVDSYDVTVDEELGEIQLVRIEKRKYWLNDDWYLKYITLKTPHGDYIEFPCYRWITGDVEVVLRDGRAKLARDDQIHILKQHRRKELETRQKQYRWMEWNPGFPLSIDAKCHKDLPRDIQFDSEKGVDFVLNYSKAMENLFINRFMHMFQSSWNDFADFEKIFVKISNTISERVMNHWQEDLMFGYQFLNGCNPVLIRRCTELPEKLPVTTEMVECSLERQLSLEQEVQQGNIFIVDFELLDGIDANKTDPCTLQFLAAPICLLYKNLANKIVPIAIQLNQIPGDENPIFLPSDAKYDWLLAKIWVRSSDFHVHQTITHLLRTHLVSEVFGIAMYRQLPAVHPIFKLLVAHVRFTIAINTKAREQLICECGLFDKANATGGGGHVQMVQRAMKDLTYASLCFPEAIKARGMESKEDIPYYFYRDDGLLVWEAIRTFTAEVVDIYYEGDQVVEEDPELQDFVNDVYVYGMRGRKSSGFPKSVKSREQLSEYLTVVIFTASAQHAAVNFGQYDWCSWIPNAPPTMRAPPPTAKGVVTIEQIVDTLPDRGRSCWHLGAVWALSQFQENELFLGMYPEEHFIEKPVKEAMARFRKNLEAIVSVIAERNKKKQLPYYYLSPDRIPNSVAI
Kind of test: Inhibition of human recombinant 5-LOX expressed in insect cells assessed as decrease in production of 5-HPETE and 5-HETE using arachidonic acid as substrate preincubated for 5 mins followed by substrate addition measured after 20 mins in dark by ferric ion oxidation-xylenol orange method.

Test [2] deals with T2, Polyunsaturated fatty acid lipoxygenase ALOX15B (Homo sapiens) (UniProt O15296).
T2 sequence (whole entry): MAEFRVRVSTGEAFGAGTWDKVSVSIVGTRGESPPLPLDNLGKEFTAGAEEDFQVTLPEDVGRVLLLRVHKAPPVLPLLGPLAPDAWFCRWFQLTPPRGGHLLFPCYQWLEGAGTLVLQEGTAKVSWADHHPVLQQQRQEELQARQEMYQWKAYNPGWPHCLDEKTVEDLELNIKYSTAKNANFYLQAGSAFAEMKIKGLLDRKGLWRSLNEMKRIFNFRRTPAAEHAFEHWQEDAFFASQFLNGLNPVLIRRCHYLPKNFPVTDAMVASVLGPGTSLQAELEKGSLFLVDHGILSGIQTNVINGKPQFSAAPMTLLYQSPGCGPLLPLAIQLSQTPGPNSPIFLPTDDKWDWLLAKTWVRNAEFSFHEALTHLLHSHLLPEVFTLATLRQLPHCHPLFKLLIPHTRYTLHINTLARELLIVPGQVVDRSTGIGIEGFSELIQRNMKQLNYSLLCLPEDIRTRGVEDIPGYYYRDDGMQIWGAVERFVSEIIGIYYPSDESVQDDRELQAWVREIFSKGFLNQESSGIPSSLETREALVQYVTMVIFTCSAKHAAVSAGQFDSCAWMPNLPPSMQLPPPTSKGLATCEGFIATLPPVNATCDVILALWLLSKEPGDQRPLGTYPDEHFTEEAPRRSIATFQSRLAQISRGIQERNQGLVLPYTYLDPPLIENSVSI
Kind of test: Inhibition of human recombinant N-terminal His-tagged 15-LOX2 expressed in Escherichia coli assessed as residual activity at 42 uM using arachidonic acid as substrate preincubated for 5 mins followed by substrate addition measured after 20 mins in dark by ferric ion oxidation-xylenol orange assay relative to control.

For test [3], the target named is T3, Prostaglandin G/H synthase 1 (Ovis aries, UniProt P05979).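 Also: recombinant ovine COX1 enzyme, PGE2 formed from arachidonic acid quantified by LC-MS, 10 min inhibitor preincubation then 45 min reaction, inhibition seen as reduced PGE2.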
T3 sequence (P05979 whole entry): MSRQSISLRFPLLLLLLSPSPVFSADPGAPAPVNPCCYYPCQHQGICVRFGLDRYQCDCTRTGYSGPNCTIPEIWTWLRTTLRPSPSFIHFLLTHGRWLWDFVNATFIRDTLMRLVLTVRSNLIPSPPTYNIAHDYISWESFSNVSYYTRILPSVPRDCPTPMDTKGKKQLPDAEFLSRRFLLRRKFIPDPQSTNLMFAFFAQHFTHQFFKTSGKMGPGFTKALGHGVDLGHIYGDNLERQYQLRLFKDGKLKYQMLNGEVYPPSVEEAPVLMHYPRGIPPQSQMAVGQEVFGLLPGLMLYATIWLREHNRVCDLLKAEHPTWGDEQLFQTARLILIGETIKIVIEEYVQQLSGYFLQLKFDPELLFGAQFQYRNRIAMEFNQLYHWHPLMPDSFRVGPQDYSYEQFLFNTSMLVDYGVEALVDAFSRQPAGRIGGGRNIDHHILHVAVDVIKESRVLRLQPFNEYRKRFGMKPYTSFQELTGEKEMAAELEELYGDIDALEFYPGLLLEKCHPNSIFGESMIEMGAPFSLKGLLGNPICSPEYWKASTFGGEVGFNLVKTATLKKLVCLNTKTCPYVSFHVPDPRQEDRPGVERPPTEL
Description: Inhibition of ovine recombinant COX1 assessed as decrease in formation of PGE2 using arachidonic acid as substrate preincubated for 10 mins followed by substrate addition measured after 45 mins by LC-MS analysis

Test [4] deals with T4, Prostaglandin G/H synthase 2 (Homo sapiens, UniProt P35354).
T4 sequence (P35354 whole entry): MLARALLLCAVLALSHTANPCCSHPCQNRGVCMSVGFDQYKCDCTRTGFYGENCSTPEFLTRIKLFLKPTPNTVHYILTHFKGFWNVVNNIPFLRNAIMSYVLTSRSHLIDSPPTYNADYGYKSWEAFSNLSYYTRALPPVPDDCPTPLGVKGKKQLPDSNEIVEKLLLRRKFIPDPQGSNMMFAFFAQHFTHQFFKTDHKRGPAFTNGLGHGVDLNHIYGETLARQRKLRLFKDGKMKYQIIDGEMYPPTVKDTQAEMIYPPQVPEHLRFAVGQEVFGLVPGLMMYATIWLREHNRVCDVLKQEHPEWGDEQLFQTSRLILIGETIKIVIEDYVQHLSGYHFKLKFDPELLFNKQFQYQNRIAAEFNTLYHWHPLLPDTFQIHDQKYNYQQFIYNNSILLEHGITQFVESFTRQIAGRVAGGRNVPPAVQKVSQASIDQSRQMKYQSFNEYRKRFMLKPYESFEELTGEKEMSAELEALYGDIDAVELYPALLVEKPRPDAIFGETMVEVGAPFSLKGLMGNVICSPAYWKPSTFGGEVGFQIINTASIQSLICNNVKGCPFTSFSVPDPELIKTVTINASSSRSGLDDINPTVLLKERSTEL
Kind of test: biochemical. Format: cell-based, Sf21.
Description: Inhibition of human recombinant COX2 expressed in baculovirus infected sf21 cells assessed as decrease in PGE2 formation using arachidonic acid as substrate preincubated for 10 mins followed by substrate addition measured after 45 mins by LC-MS analysis

For test [5], the target named is T5, Polyunsaturated fatty acid lipoxygenase ALOX15B (Homo sapiens, UniProt O15296).
T5 sequence (O15296 whole entry): T2 sequence (whole entry)
In words: Inhibition of human recombinant N-terminal His-tagged 15-LOX2 expressed in Escherichia coli using arachidonic acid as substrate preincubated for 5 mins followed by substrate addition measured after 20 mins in dark by ferric ion oxidation-xylenol orange assay.

Test [6] concerns the target T6, Polyunsaturated fatty acid 5-lipoxygenase (Homo sapiens) (UniProt P09917).
T6 sequence (whole entry): T1 sequence (P09917 whole entry)
In words: Inhibition of human recombinant 5-LOX expressed in insect cells assessed residual activity using arachidonic acid at 42 uM as substrate preincubated for 5 mins followed by substrate addition measured after 20 mins in dark by ferric ion oxidation-xylenol orange method relative to control.

The term IC50 denotes the midpoint of a concentration-inhibition curve.

As for `CC1(C)[C@@H](O)CC[C@]2(C)[C@H]3CC=C4[C@@H]5C[C@@](C)(CO)CC[C@]5(C)CC[C@@]4(C)[C@]3(C)CC[C@@H]12`, the IC50 in test [1] (read-out: IC50) was 31.8 µM; in test [3], “Not Active”; in test [4] (read-out: IC50) it was greater than 40 µM; in test [5] it was “Not Active”. Besides, the figures for the Activity in test [2] and in test [6] were 100% and 34.8%, respectively.

As for `C[C@H]1[C@H](C)CC[C@]2(C)CC[C@]3(C)C(=CC[C@@H]4[C@@]5(C)CC[C@H](O)C(C)(C)[C@@H]5CC[C@]43C)[C@H]12`, the concentration for half-maximal inhibition (IC50) was greater than 40 µM in test [1] (read-out: IC50), “Not Active” in test [3], “Not Active” in test [4] (sf21) and “Not Active” in test [5]. Further, the Activity was determined as 100% in test [2] and 55.5% in test [6].

For `CC1(C)CC[C@]2(CO)CC[C@]3(C)C(=CC[C@@H]4[C@@]5(C)CC[C@H](O)C(C)(C)[C@@H]5CC[C@]43C)[C@@H]2C1` [ERYTHRODIOL], the IC50 was greater than 40 µM in test [1] (read-out: IC50), “Not Active” in test [3], “Not Active” in test [4] (sf21) and “Not Active” in test [5]. Besides, the figures for the Activity in test [2] and in test [6] were 100% and 60.7%, respectively.

With `CC1(C)CC[C@]2(C(=O)O)CC[C@]3(C)C(=CC[C@@H]4[C@@]5(C)CC[C@H](O)[C@@](C)(C=O)[C@@H]5CC[C@]43C)[C@@H]2C1`, the IC50 result in test [1], in test [3], in test [4] (sf21) and in test [5] was “Not Active” throughout. The Activity in test [2] and in test [6] was 100% each time.

As for `C[C@H]1[C@H](C)CC[C@]2(C)CC[C@]3(C)C(=CC[C@@H]4[C@@]5(C)CCC(=O)C(C)(C)[C@@H]5CC[C@]43C)[C@H]12`, the IC50 entry in test [1] is “Not Active”; in test [3] it was “Not Active”; in test [4] (read-out: IC50), greater than 40 µM; in test [5], “Not Active”. Also, the Activity in test [2] and in test [6] was 100% in each case.

For the compound `CC1(C)CC[C@]2(C(=O)O)CC[C@]3(C)C(=CC[C@@H]4[C@@]5(C)CC[C@H](O)[C@@](C)(CO)[C@@H]5CC[C@]43C)[C@@H]2C1` [HEDERAGENIN], the IC50 in test [1] (read-out: IC50) was greater than 40 µM; in test [3] it was “Not Active”; in test [4] (sf21), “Not Active”; in test [5] (read-out: IC50), greater than 40 µM. For the same compound, the Activity in test [2] is 64.7%; in test [6] it was 59.8%.

Regarding `CC1(C)CC[C@]2(C(=O)O)CC[C@]3(C)C(=CC[C@@H]4[C@@]5(C)C[C@H](O)[C@H](O)[C@@](C)(C(=O)O)[C@@H]5CC[C@]43C)[C@@H]2C1`, the IC50 is 30.4 µM in test [1] (read-out: IC50), “Not Active” in test [3], greater than 40 µM in test [4] (read-out: IC50) and “Not Active” in test [5]. Besides, the values for the Activity in test [2] and in test [6] were 100% and 40.7%, respectively.

For the compound `CC1(C)[C@@H](O)CC[C@]2(C)[C@H]3C(=O)C=C4[C@@H]5C[C@@](C)(C(=O)O)CC[C@]5(C)CC[C@@]4(C)[C@]3(C)CC[C@@H]12` [ENOXOLONE], the half-maximal inhibitory concentration (IC50) in test [1] (read-out: IC50) was 24.8 µM; in test [3] it was “Not Active”; in test [4] (read-out: IC50), greater than 40 µM; in test [5] (read-out: IC50), greater than 40 µM. The Activity in test [2] was 98.6%; in test [6], 28.3%.

Take `CC1(C)CC[C@]2(C)CC[C@]3(C)C(=CC[C@@H]4[C@@]5(C)CC[C@H](O)[C@](C)(CO)[C@@H]5CC[C@]43C)[C@@H]2C1`: the IC50 in test [1] (read-out: IC50) was 30.6 µM; in test [3], “Not Active”; in test [4] (sf21) it was “Not Active”; in test [5] it was “Not Active”. Moreover, the Activity is 100% in test [2] and 29.8% in test [6].

In the case of `CC1(C)CC[C@]2(C)CC[C@]3(C)C(=CC(=O)[C@@H]4[C@@]5(C)CC[C@H](O)C(C)(C)[C@@H]5CC[C@]43C)[C@@H]2C1`, the IC50 in test [1] (read-out: IC50) was greater than 40 µM; in test [3], “Not Active”; in test [4] (read-out: IC50), greater than 40 µM; in test [5] it was “Not Active”. Further, the Activity in test [2] came to 100%; in test [6] it was 70.4%.

With `C[C@H]1[C@H](C)CC[C@]2(CO)CC[C@]3(C)C(=CC[C@@H]4[C@@]5(C)CC[C@H](O)C(C)(C)[C@@H]5CC[C@]43C)[C@H]12` [UVAOL], the Activity in test [2] was 70.2%; in test [6], 45%. The IC50 result in test [3] is “Not Active”; in test [4] (sf21), “Not Active”; in test [5] (read-out: IC50), greater than 40 µM.

For the compound `CC1(C)CC[C@]2(C)CC[C@]3(C)C(=CC[C@@H]4[C@@]5(C)CC[C@H](O)C(C)(C)[C@@H]5CC[C@]43C)[C@@H]2C1` [beta-AMYRIN], the IC50 in test [1] (read-out: IC50) is greater than 40 µM; in test [3], “Not Active”; in test [4] (sf21), “Not Active”; in test [5] (read-out: IC50), greater than 40 µM. The Activity was 97.2% in test [2] and 73.3% in test [6].

For `CC1(C)CC[C@]2(C(=O)O)CC[C@]3(C)C(=CC[C@@H]4[C@@]5(C)CC[C@H](O)[C@@](C)(C(=O)O)[C@@H]5CC[C@]43C)[C@@H]2C1`, the IC50 in test [1] (read-out: IC50) was greater than 40 µM; in test [3] it was “Not Active”; in test [4] (sf21), “Not Active”; in test [5], “Not Active”. The values for the Activity in test [2] and in test [6] were 100% and 86%, respectively.
